Source: US12522602B2, “Derivatives having 2,3-dihydro-1H-indene or 2,3-dihydrobenzofuran moiety or pharmaceutically acceptable salt thereof and pharmaceutical compositions comprising the same” (YUHAN CORPORATION, priority 2019, dated 2026)
Where two headings read alike, the source gives them in different places.

Tested on: GM1 production in Jurkat cells
Experiment: cells
Format: cell-based

Row | Compound | IC50 (Homo sapiens, Jurkat, 72 h) | IC50
1 | CCC1(CC)Cc2cc(-c3ccsc3)ccc2C1NC(=O)O[C@@H]1CN2CCC1CC2 (stereo partly drawn) [Example 306, (S)-quinuclidin-3-yl (2,2-diethyl-5-(thiophen-3-yl)-2,3-dihydro-1H-inden-1-yl)carbamate] | 27.5 nM | –
2 | CCC1(CC)Cc2cc(-c3ccoc3)ccc2C1NC(=O)O[C@@H]1CN2CCC1CC2 (stereo partly drawn) [Example 307, (S)-quinuclidin-3-yl (2,2-diethyl-5-(furan-3-yl)-2,3-dihydro-1H-inden-1-yl)carbamate] | 30.2 nM | –
3 | CCC1(CC)Cc2cc(-c3ccc(OCC4CC4)nc3)ccc2C1NC(=O)O[C@@H]1CN2CCC1CC2 (stereo partly drawn) [Example 308, (S)-quinuclidin-3-yl (5-(6-(cyclopropylmethoxy)pyridin-3-yl)-2,2-diethyl-2,3-dihydro-1H-inden-1-yl)carbamate] | 5.5 nM | –
4 | CCC1(CC)Cc2cc(-c3ccc4c(c3)OC(F)(F)O4)ccc2C1NC(=O)O[C@@H]1CN2CCC1CC2 (stereo partly drawn) [Example 309, (S)-quinuclidin-3-yl (5-(2,2-difluorobenzo[d][1,3]dioxol-5-yl)-2,2-diethyl-2,3-dihydro-1H-inden-1-yl)carbamate] | 11.2 nM | –
5 | CCC1(CC)Cc2cc(-c3ccc(OC)cc3F)ccc2C1NC(=O)O[C@@H]1CN2CCC1CC2 (stereo partly drawn) [Example 310, (S)-quinuclidin-3-yl (2,2-diethyl-5-(2-fluoro-4-methoxyphenyl)-2,3-dihydro-1H-inden-1-yl)carbamate] | 16.3 nM | –
6 | CCC1(CC)Cc2cc(-c3ccc(OC(C)C)c(Cl)c3)ccc2C1NC(=O)O[C@@H]1CN2CCC1CC2 (stereo partly drawn) [Example 311, (S)-quinuclidin-3-yl (5-(3-chloro-4-isopropoxyphenyl)-2,2-diethyl-2,3-dihydro-1H-inden-1-yl)carbamate] | 27 nM | –
7 | CCc1ccc(-c2cc3c(cc2OC)C(NC(=O)O[C@@H]2CN4CCC2CC4)C(C)(C)C3)cc1 (stereo partly drawn) [Example 312, (S)-quinuclidin-3-yl (5-(4-ethylphenyl)-6-methoxy-2,2-dimethyl-2,3-dihydro-1H-inden-1-yl)carbamate] | 13.1 nM | –
8 | CCCc1ccc(-c2cc3c(cc2OC)C(NC(=O)O[C@@H]2CN4CCC2CC4)C(C)(C)C3)cc1 (stereo partly drawn) [Example 313, (S)-quinuclidin-3-yl (6-methoxy-2,2-dimethyl-5-(4-propylphenyl)-2,3-dihydro-1H-inden-1-yl)carbamate] | 7.3 nM | –
9 | COc1cc2c(cc1-c1ccc(C(C)C)cc1)CC(C)(C)C2NC(=O)O[C@@H]1CN2CCC1CC2 (stereo partly drawn) [Example 314, (S)-quinuclidin-3-yl (5-(4-isopropylphenyl)-6-methoxy-2,2-dimethyl-2,3-dihydro-1H-inden-1-yl)carbamate] | 7.7 nM | –
10 | COc1cc2c(cc1-c1ccc(CC(C)C)cc1)CC(C)(C)C2NC(=O)O[C@@H]1CN2CCC1CC2 (stereo partly drawn) [Example 315, (S)-quinuclidin-3-yl (5-(4-isobutylphenyl)-6-methoxy-2,2-dimethyl-2,3-dihydro-1H-inden-1-yl)carbamate] | – | 11.3 nM
11 | COc1cc2c(cc1-c1ccc(C(C)(C)C)cc1)CC(C)(C)C2NC(=O)O[C@@H]1CN2CCC1CC2 (stereo partly drawn) [Example 316, (S)-quinuclidin-3-yl (5-(4-(tert-butyl)phenyl)-6-methoxy-2,2-dimethyl-2,3-dihydro-1H-inden-1-yl)carbamate] | 13.3 nM | –
12 | COc1cc2c(cc1-c1ccc(C3CC3)cc1)CC(C)(C)C2NC(=O)O[C@@H]1CN2CCC1CC2 (stereo partly drawn) [Example 317, (S)-quinuclidin-3-yl (5-(4-cyclopropylphenyl)-6-methoxy-2,2-dimethyl-2,3-dihydro-1H-inden-1-yl)carbamate] | 10.3 nM | –
13 | CCOc1ccc(-c2cc3c(cc2OC)C(NC(=O)O[C@@H]2CN4CCC2CC4)C(C)(C)C3)cc1 (stereo partly drawn) [Example 318, (S)-quinuclidin-3-yl (5-(4-ethoxyphenyl)-6-methoxy-2,2-dimethyl-2,3-dihydro-1H-inden-1-yl)carbamate] | 20 nM | –
14 | CCCOc1ccc(-c2cc3c(cc2OC)C(NC(=O)O[C@@H]2CN4CCC2CC4)C(C)(C)C3)cc1 (stereo partly drawn) [Example 319, (S)-quinuclidin-3-yl (6-methoxy-2,2-dimethyl-5-(4-propoxyphenyl)-2,3-dihydro-1H-inden-1-yl)carbamate] | 7.7 nM | –
15 | COc1cc2c(cc1-c1ccc(OC(C)C)cc1)CC(C)(C)C2NC(=O)O[C@@H]1CN2CCC1CC2 (stereo partly drawn) [Example 320, (S)-quinuclidin-3-yl (5-(4-isopropoxyphenyl)-6-methoxy-2,2-dimethyl-2,3-dihydro-1H-inden-1-yl)carbamate] | 8.5 nM | –
16 | CCCOc1c(C)cc(-c2cc3c(cc2OC)C(NC(=O)O[C@@H]2CN4CCC2CC4)C(C)(C)C3)cc1C (stereo partly drawn) [Example 321, (S)-quinuclidin-3-yl (5-(3,5-dimethyl-4-propoxyphenyl)-6-methoxy-2,2-dimethyl-2,3-dihydro-1H-inden-1-yl)carbamate] | 31.9 nM | –
17 | COc1cc2c(cc1-c1ccc(OC(C)C)c(Cl)c1)CC(C)(C)C2NC(=O)O[C@@H]1CN2CCC1CC2 (stereo partly drawn) [Example 322, (S)-quinuclidin-3-yl (5-(3-chloro-4-isopropoxyphenyl)-6-methoxy-2,2-dimethyl-2,3-dihydro-1H-inden-1-yl)carbamate] | 24.4 nM | –

Row | Compound | IC50 (Homo sapiens, Jurkat, 72 h) | IC50
18 | COc1ccc(-c2cc3c(cc2OC)C(NC(=O)O[C@@H]2CN4CCC2CC4)C(C)(C)C3)c(F)c1 (stereo partly drawn) [Example 323, (S)-quinuclidin-3-yl (5-(2-fluoro-4-methoxyphenyl)-6-methoxy-2,2-dimethyl-2,3-dihydro-1H-inden-1-yl)carbamate] | 78.9 nM | –
19 | CCCCOc1ccc(-c2cc3c(cc2OC)C(NC(=O)O[C@@H]2CN4CCC2CC4)C(C)(C)C3)cc1 (stereo partly drawn) [Example 324, (S)-quinuclidin-3-yl (5-(4-butoxyphenyl)-6-methoxy-2,2-dimethyl-2,3-dihydro-1H-inden-1-yl)carbamate] | 5.8 nM | –
20 | COc1cc2c(cc1-c1ccc(CC(C)C)cc1)CC(C)(C)C2NC(=O)O[C@@H]1CN2CCC1CC2 (stereo partly drawn) [Example 325, (S)-quinuclidin-3-yl (5-(4-isobutylphenyl)-6-methoxy-2,2-dimethyl-2,3-dihydro-1H-inden-1-yl)carbamate] | – | 2.1 nM
21 | COc1cc2c(cc1-c1ccc(OCC3CC3)nc1)CC(C)(C)C2NC(=O)O[C@@H]1CN2CCC1CC2 (stereo partly drawn) [Example 326, (S)-quinuclidin-3-yl (5-(6-(cyclopropylmethoxy)pyridin-3-yl)-6-methoxy-2,2-dimethyl-2,3-dihydro-1H-inden-1-yl)carbamate] | 10.8 nM | –
22 | COc1ccc(Cl)cc1-c1cc2c(cc1OC)C(NC(=O)O[C@@H]1CN3CCC1CC3)C(C)(C)C2 (stereo partly drawn) [Example 327, (S)-quinuclidin-3-yl (5-(5-chloro-2-methoxyphenyl)-6-methoxy-2,2-dimethyl-2,3-dihydro-1H-inden-1-yl)carbamate] | 16.8 nM | –
23 | CCCCc1ccc(-c2cc3c(cc2OC)C(NC(=O)O[C@@H]2CN4CCC2CC4)C(C)(C)C3)cc1 (stereo partly drawn) [Example 328, (S)-quinuclidin-3-yl (5-(4-butylphenyl)-6-methoxy-2,2-dimethyl-2,3-dihydro-1H-inden-1-yl)carbamate] | 11.4 nM | –
24 | COc1cc2c(cc1-c1cc(C)c(OC)c(C)c1)CC(C)(C)C2NC(=O)O[C@@H]1CN2CCC1CC2 (stereo partly drawn) [Example 329, (S)-quinuclidin-3-yl (6-methoxy-5-(4-methoxy-3,5-dimethylphenyl)-2,2-dimethyl-2,3-dihydro-1H-inden-1-yl)carbamate] | 65.8 nM | –
25 | CCOc1c(C)cc(-c2cc3c(cc2OC)C(NC(=O)O[C@@H]2CN4CCC2CC4)C(C)(C)C3)cc1C (stereo partly drawn) [Example 330, (S)-quinuclidin-3-yl (5-(4-ethoxy-3,5-dimethylphenyl)-6-methoxy-2,2-dimethyl-2,3-dihydro-1H-inden-1-yl)carbamate] | 52.7 nM | –
26 | CCCCOc1c(C)cc(-c2cc3c(cc2OC)C(NC(=O)O[C@@H]2CN4CCC2CC4)C(C)(C)C3)cc1C (stereo partly drawn) [Example 331, (S)-quinuclidin-3-yl (5-(4-butoxy-3,5-dimethylphenyl)-6-methoxy-2,2-dimethyl-2,3-dihydro-1H-inden-1-yl)carbamate] | 22.6 nM | –
27 | COc1cc(-c2cc3c(cc2OC)C(NC(=O)O[C@@H]2CN4CCC2CC4)C(C)(C)C3)ccn1 (stereo partly drawn) [Example 332, (S)-quinuclidin-3-yl (6-methoxy-5-(2-methoxypyridin-4-yl)-2,2-dimethyl-2,3-dihydro-1H-inden-1-yl)carbamate] | 158 nM | –
28 | COc1cc2c(cc1-c1cccc(F)c1)CC(C)(C)C2NC(=O)O[C@@H]1CN2CCC1CC2 (stereo partly drawn) [Example 333, (S)-quinuclidin-3-yl (5-(3-fluorophenyl)-6-methoxy-2,2-dimethyl-2,3-dihydro-1H-inden-1-yl)carbamate] | 45 nM | –
29 | CCc1cccc(-c2cc3c(cc2OC)C(NC(=O)O[C@@H]2CN4CCC2CC4)C(C)(C)C3)c1 (stereo partly drawn) [Example 334, (S)-quinuclidin-3-yl (5-(3-ethylphenyl)-6-methoxy-2,2-dimethyl-2,3-dihydro-1H-inden-1-yl)carbamate] | 20.9 nM | –
30 | COc1cc2c(cc1-c1cccc(CC(C)C)c1)CC(C)(C)C2NC(=O)O[C@@H]1CN2CCC1CC2 (stereo partly drawn) [Example 335, (S)-quinuclidin-3-yl (5-(3-isobutylphenyl)-6-methoxy-2,2-dimethyl-2,3-dihydro-1H-inden-1-yl)carbamate] | 50.4 nM | –
31 | COc1cc2c(cc1-c1cccc(C(C)C)c1)CC(C)(C)C2NC(=O)O[C@@H]1CN2CCC1CC2 (stereo partly drawn) [Example 336, (S)-quinuclidin-3-yl (5-(3-isopropylphenyl)-6-methoxy-2,2-dimethyl-2,3-dihydro-1H-inden-1-yl)carbamate] | 48 nM | –
32 | COc1cc2c(cc1-c1cccc(C(C)(C)C)c1)CC(C)(C)C2NC(=O)O[C@@H]1CN2CCC1CC2 (stereo partly drawn) [Example 337, (S)-quinuclidin-3-yl (5-(3-(tert-butyl)phenyl)-6-methoxy-2,2-dimethyl-2,3-dihydro-1H-inden-1-yl)carbamate] | 65 nM | –
33 | COc1cccc(-c2cc3c(cc2OC)C(NC(=O)O[C@@H]2CN4CCC2CC4)C(C)(C)C3)c1 (stereo partly drawn) [Example 338, (S)-quinuclidin-3-yl (6-methoxy-5-(3-methoxyphenyl)-2,2-dimethyl-2,3-dihydro-1H-inden-1-yl)carbamate] | 53.7 nM | –
34 | CCOc1cccc(-c2cc3c(cc2OC)C(NC(=O)O[C@@H]2CN4CCC2CC4)C(C)(C)C3)c1 (stereo partly drawn) [Example 339, (S)-quinuclidin-3-yl (5-(3-ethoxyphenyl)-6-methoxy-2,2-dimethyl-2,3-dihydro-1H-inden-1-yl)carbamate] | 62.5 nM | –
